Common to all, as to format: in vivo, human
Experiment [1] relates to college baseball players. Briefly: Static and dynamic visual performance after zeaxanthin supplementation (Example 2). The settings on record: 20 mg/d supplementation ongoing; preliminary data. An excerpt:
Baseball performance requires the ability to perceive and react to temporally varying stimuli under lighting conditions that are known to be most detrimental to visual function (i.e., short-wave light). Macular pigment (MP) lutein (L) and zeaxanthin (Z) in the retina—is known to improve performance under such conditions and may also improve neural efficiency. The purpose of this study was to assess static and dynamic visual performance in college baseball players in order to: • a) Define performance ability in athletes and non-athletes matched for age and MP (N=18); and, • b) Improve athletes' performance via supplementation.
(§1) Stimuli presented in three-channel Maxwellian-view optical system (1 kW xenon-arc light source).
(§2) • 570 nm target (100% contrast, 5 cycles per degree—cpd); 10° inner, 12° outer diameter annulus comprised of broad-band xenon light (see FIG. 1 a). • Threshold: intensity of annulus required to completely veil target.
(§3) • 600 nm target (100% contrast grating, 5 cpd); 460 nm surround (see FIG. 1A(b)). • Threshold: intensity of background required to obscure edge between target and surround.
• 570 nm target (100% contrast; 5 cpd). • 5 second exposure to bleaching photostressor (5° diameter disk; xenon-white light of log 2.5 μW/cm2 intensity). • Threshold: time to recover visibility of target. […]

The subject of experiment [2] is college baseball players. Briefly: Fixed and variable position reaction time (FRT/VRT). The settings on record: 20 mg/Z/day for 3-months. As for the experimental part: (§4) Subjects: Seven college baseball players (M=20.3±0.58 years), supplemented with 20 mg/Z/day for 3-months, participated in this study. The visual function parameters MPOD, disability glare, photostress recovery time, and contrast enhancement were determined. The neural efficiency parameters Fixed Reaction Time (FRT); Variable Reaction Time (VRT); and Coincidence Anticipation Timing (CAT) were determined.
• Task: button press in response to LED repeatedly presented at same position (FRT) or random location (VFT) along the 120 LED linear track. • 60 trials; inter-trial intervals varied between 1000-3000 ms

Experiment [3] concerns college baseball players. The experiment is described as follows: Glare disability (GL). Conditions: 20 mg/Z/day for 3-months. The procedure:
as §4, §1, §2

Experiment [4] deals with college baseball players. Briefly: Coincidence anticipation timing (CAT). The settings on record: 20 mg/Z/day for 3-months; at the highest frequency. The procedure: as §4
• Task: button press to indicate when a light bar (traveling along 120 LED linear track) reached a specified point. • Velocity randomly varied between 5, 10, 15, and 20 MPH (15 trials for each speed, randomly presented; inter-trial intervals randomly varied between 1000-3000 ms).

Experiment [5] has as its system college baseball players. The experiment is described as follows: Contrast enhancement (CE). Conditions: 20 mg/Z/day for 3-months. The procedure: as §4, §1, §3
Experiment [6] concerns college baseball players. The experiment is described as follows: Macular pigment optical density (MPOD) by customized heterochromatic flicker photometry, zeaxanthin supplementation study. Conditions: for MPOD (Example 2, preliminary data): 20 mg/d supplementation ongoing. As for the experimental part: as §4
• Customized HFP [3]—Macular Metrics Corp., Providence, R.I.,

In experiment [7] the test system is college baseball players. The experiment is described as follows: Photostress recovery time (PR). The settings on record: 20 mg/Z/day for 3-months; supplemented subjects. The procedure:
as §4, §1
• 570 nm target (100% contrast; 5 cpd). • 5 second exposure to bleaching photostressor (5° diameter disk; xenon-white light of log 2.5 μW/cm2 intensity). • Threshold: time to recover visibility of target.

The results in this text go back to patent US20170367996A1, “Use Of Xanthophyll Carotenoids To Improve Visual Performance And Neural Efficiency” (University of Georgia Research Foundation, Inc., priority 2011, published 2017).

Take `CC1=C(/C=C/C(C)=C/C=C/C(C)=C/C=C/C=C(C)/C=C/C=C(C)/C=C/C2=C(C)C[C@@H](O)CC2(C)C)C(C)(C)C[C@H](O)C1` [Zeaxanthin, zeaxanthin]: in experiment [1], the Dynamic visual performance entry is “improvement” and the Static visual performance entry is recorded as “improvement”. In experiment [2], the FRT result was “improved” and the VRT result was “improved”. Further, the “Glare (disability glare)” value in experiment [3] is “Early improvements”. In experiment [4], the CAT accuracy entry is “improved”. Further, the Contrast enhancement result in experiment [5] is listed as “Early improvements”. The “MPOD in supplemented subjects” value in experiment [6] (20 mg/Z/day for 3-months, three subjects completed) was “increased”. Further, the “MPOD (Example 2, preliminary data)” value in experiment [6] was “increases”. Further, the “MPOD (Example 2, preliminary data)” value in experiment [6] (listed as zeaxanthin) is listed as “Increases”. Also, the “12-week MPOD” value in experiment [6] (one subject, baseline MPOD 0.7 at 30-min of eccentricity, 20 mg/d, 12 weeks) amounted to 0.77. In experiment [7], the Photostress recovery time result was “decreased”.
